Entries after “also recorded” stand apart in the source; their conditions may differ.
Assays:
[1] = system: ΔF508-CFTR (C127-ΔF508-low cells); assay: SPQ halide efflux assay, cAMP-stimulated Cl- channel activity, C127-ΔF508-low cells; format: cell-based; conditions: C127-ΔF508-low cells; for cAMP-stimulated change in SPQ fluorescence / Cl- channel activity, in words: DSG 10-100 μg/ml, sodium butyrate 5 mM 24 h, spermidine 5 μg/ml 72 h
Experimental: (§1) The cAMP-dependent CFTR Cl^- channel activity was assessed using the halide-sensitive fluorophore 6-methoxy-N-(3-sulfopropyl)-quinolinium (SPQ) essentially as described previously (Cheng et al., (1995), supra.; Marshall et al., supra.). Briefly, the cells were treated with different amounts of DSG for the times specified. At the end of the treatment period, the cells were loaded with SPQ by hypotonic shock for 4 min at room temperature. SPQ fluorescence initially was quenched by incubating the cells for up to 30 min in a NaI buffer (135 mM NaI, 2.4 mM K2 HPO4, 0.6 mM KH2 PO4, 1 mM MgSO4, 1 mM CaSO4, 10 mM dextrose, and 10 mM N-2 hydroxyethylpiperazine-N'2-ethanesulfonic acid, pH 7.4). After measuring the baseline fluorescence (Fo) for 2 min., the NaI solution was replaced with one containing 135 mM NaNO3, and fluorescence was measured for another 16 min. Forskolin (20 μM) and 3-isobutyl-1-methyl-xanthine (IBMX) (100 μM) were added 5 min after the anion substitution to increase intracellular levels of cAMP.
(§2) An increase in halide permeability is reflected by a more rapid increase in SPQ fluorescence. It is the rate of change rather than the absolute change in signal that is the important variable in evaluating anion permeability. Differences in absolute levels reflect quantitative differences between groups in SPQ loading, size of cells, or number of cells studied. The data are presented as means± SE of fluorescence at time t (Ft) minus the baseline fluorescence (Fo, the average fluorescence measured in the presence of I^- for 2 min. before ion substitution) and are representative of results obtained under each condition.
For each experiment, between 50 to 100 cells were examined on a given day and studies under each condition were repeated on at least two days. For each experiment, the responses were compared with those obtained with control or untreated cells. […] Under the conditions specified above, control cells were unresponsive to added cAMP agonists. There was a broad spectrum in the rate of change in SPQ fluorescence observed with responsive cells. Normally, cells were scored as responsive if they generated a minimum of a […] change in the rate of increase in SPQ fluorescence following stimulation with cAMP agonists. Because the response was heterogenous, the data shown are for the 10% of cells in each experiment showing the greatest response.
A bovine-papilloma virus based eukaryotic expression vector (pBPV-CFTR-ΔF508) containing the gene for ΔF508 CFTR and neomycin resistance were transfected into C127 cells. The C127 cells are murine mammary cells which were obtained from ATCC (#CRL 1616). The expression of the mutant ΔF508 protein and neomycin was driven using a metallothionein promoter. Following transfection, clonal cells resistant to G418 were isolated and cells expressing the mutant ΔF508 protein were subsequently identified using antibodies specific for CFTR (mAb-13-1). The cells expressing the mutant ΔF508 CFTR protein were maintained in Dulbecco's modified eagle media (DMEM) supplemented with glutamine and fetal calf serum.
C127-ΔF508-low (mouse mammary tumor) is a recombinant cell line stably transfected with the cDNA encoding the mutant ΔF508-CFTR (Cheng et al. (1995), supra.; Marshall et al. (1994), J. Biol. Chem. 269: 2987-2995). […] C127-mock is a cell line that has been stably transfected with the backbone of the expression vector used to generate C127-ΔF508-low (Cheng et al. (1995), supra.). LLCPK1 -ΔF508 (pig kidney epithelial) is a recombinant cell line stably expressing low levels of the mutant ΔF508-CFTR protein (Marshall et al., supra.). The details of the generation, characterization and routine propagation of these cell lines has been described (Cheng et al. (1995), supra.; Marshall et al., supra.).
Cells were treated with up to 100 μg/ml of DSG for up to 72 h. Concentrations of DSG >50 μg/ml were toxic to most of the cell types tested. […]

[2] = system: ΔF508-CFTR (JME/CF15 cells); assay: SPQ assay, cAMP-stimulated Cl- channel activity, JME/CF15 cells; format: cell-based, human; conditions: 72 h
Experimental: as §1, §2
For each experiment, between 50 to 100 cells were examined on a given day and studies under each condition were repeated on at least two days. […] There was a broad spectrum in the rate of change in SPQ fluorescence observed with responsive cells. Normally, cells were scored as responsive if they generated a minimum of a […] change in the rate of increase in SPQ fluorescence following stimulation with cAMP agonists. […]

[3] = system: CFTR; conditions: Yang et al. (1997); cited from earlier work
[4] = system: ΔF508-CFTR; conditions: recombinant cells; Cheng et al. (1995); cited from earlier work
[5] = system: ΔF508-CFTR (IBE-1 cells); assay: whole cell patch-clamp analysis of IBE-1 cells; format: cell-based, human; conditions: 200 μM extracellular DPC, n=4, DSG-treated IBE-1 cells
Experimental: The bath (extracellular) solution contained: 140 mM N-methyl-Dglucamine (NMDG), 2 mM CaCl2, 1 mM MgCl2, 0.1 mM CdCl2, 10 mM HEPES, 4 mM CsCl, and 10 mM glucose, pH 7.4. These solutions were designed so as to study only currents flowing through Cl^- channels, since Cl^- was the only significant permeant ion in the solutions. Furthermore, Ca^2+ -activated Cl^- currents were minimized by inclusion of 10 mM EGTA in the intracellular solution and 100 μM of Cd^2+ in the extracellular bath. K^+ currents were minimized by including 20 mM TEA in the intracellular solution. Aspartate was used as the replacement anion in experiments in which extracellular Cl^- concentration was changed. Forskolin (10 μM), IBMX (100 μM), 8-(4-chlorophenylthio)-cAMP (cpt-cAMP, 200 μM), diphenylamine carboxylic acid (DPC, 200 μM), UTP (100 μM), and ionomycin (1 μM) were added to the bath solutions as indicated. Current recordings were made from the same cells before, during, and after exposure to the solutions containing the different agonists or inhibitors. All experiments were performed at room temperature (22° C.). Currents were filtered at 2 kHz. Data acquisition and analysis were performed using the PCLAMP 5.5.1 software (Axon Instruments, Foster City, Calif.).
In all of the successfully patched CF IBE-1 cells from 6 separate coverslips no activation of whole cell currents in response to forskolin (10 μM) plus IBMX (100 μM) or cpt-cAMP (200 μM) was detected (FIG. 10A and 10B), indicating no endogenous CFTR channel activity in these cells. In contrast, in 7 out of 19 successful patched cells from 19 separate coverslips treated with DSG (10 μM) for 48 to 72 hrs. a significant activation of whole cell currents was observed. As all the other cells, the holding potential was 0 m, which inactivated the voltage-gated Na^+ and Ca^++ channels. After addition of 200 μM cpt-cAMP to the bath solution, voltage steps from the holding potential to between -100 mV and 80 mV in 20 mV increments activated whole cell currents. In these experiments, the intracellular and extracellular solutions were designed to study only current flowing through Cl^- channels, since Cl^- is the only significant permeant ion in solution. Ca^++ and K^+ currents were minimized by 100 μM of extracellular Cd^++ and 20 mM of intracellular TEA respectively. Furthermore, the currents were ascertained to be Cl^- currents from change in the reversal potential which was shifted from 1.1±1.5 to 47.3±6.1 mV by reducing extracellular Cl^- from 150 mM to 20 mM.
It is highly unlikely that Ca^++ -activated Cl^- was recorded in these experiments because of the presence of 10 mM intracellular EGTA and 100 µM extracellular Cd^++. […] Special attention was paid to detect possible contribution of the outwardly rectifying Cl^- channel (ORCC) to the whole cell currents. Because of a possible upregulatory role of CFTR, ORCC can be activated in normal but not in CF airway epithelial cells (Hwang et al. (1989), supra.; Li et al. (1988), Nature 331: 358-360; Morris and Frizzel (1993); Am. J. Physiol.; Schwiebert et al. (1994), Am. J. Physiol.).

[6] = system: ΔF508-CFTR (IBE-1 cells); conditions: CFTR vs ORCC; Cliff and Frizzel, Schwiebert et al.; cited from earlier work

NCCCCNCCCN [spermidine]
cAMP-stimulated change in SPQ fluorescence / Cl- channel activity, in words [1]: No measurable cAMP-stimulated Cl^- channel activity was detected | cAMP-stimulated Cl- channel activity, in words [2]: not replicated

O=c1c(-c2ccc(O)cc2)coc2cc(O)cc(O)c12 [genistein]
activity of CFTR Cl channels at the cell surface [3]: enhance the activity of CFTR

CCCC(=O)[O-].[Na+] [sodium butyrate]
cells generating a measurable response ([1]; SPQ, average of 5 experiments): 90% | cAMP-stimulated change in SPQ fluorescence / Cl- channel activity, in words [1]: generated cAMP-stimulated halide efflux | effect on ΔF508-CFTR expression / location, in words [4]: overexpression of ΔF508 in recombinant cells; also recorded: results in synthesis of detectable amounts of band C-CFTR; also recorded: capable of effecting the presence of ΔF508-CFTR at the plasma membrane

O=C(O)c1ccccc1Nc1ccccc1 [DPC, diphenylamine carboxylic acid]
reduction of whole cell currents [5]: 92±4% | selectivity of inhibition [6]: specifically inhibit CFTR but not ORCC

calyculin
activity of CFTR Cl channels at the cell surface [3]: enhance the activity of CFTR

From patent US5985824A, “Methods and compositions for treating cystic fibrosis” (priority 1997, dated 1999)
